These results are taken from article PMC5570423, “Structural characterisation of TNRC6A nuclear localisation signal in complex with importin-alpha” (PLoS ONE, 2017).

Where no end group is shown, it is not given here.

Assay [1] deals with mImpα1ΔIBB. The assay is described as follows: In vitro GST pull-down with mouse Impα1ΔIBB. The format is binding. Particulars: 100 μg GST-cNLS, 250 μg Impα, glutathione resin, 4°C 1 hr, 20 mM Tris pH7.5, […] NaCl, 1 mM DTT; SDS-PAGE. As for the experimental part: (§1) Glutathione resin (Pierce) was incubated with 100 μg of purified GST-cNLS or GST, and 250 μg of ImpA or 500 μg of ImpB at 4°C for 1 hr. Unbound protein was removed by washing beads 5 times in 500 μL binding buffer, and the bound proteins were eluted in binding buffer supplemented with 10 mM glutathione. The samples were analysed using SDS-PAGE, input lanes correspond to 1% of incubated samples and pull-down lanes correspond to 8% of eluted protein.

Assay [2] has as its system human Impβ. The assay is described as follows: In vitro GST pull-down with human Impβ. The format is binding. The note with it: GST-NLS with His-tagged human Impβ (500 μg), 4°C 1 hr; S1 Fig. As for the experimental part: as §1
(§2) Pull-downs with GST-NLS or GST-mImpα1 full-length with His-tagged mouse and human Impβ. GST and mImpα1 served as the negative and positive controls, respectively. (EPS) Click here for additional data file.

In assay [3] the test system is hImpα1ΔIBB. The assay is described as follows: In vitro GST pull-down with human Impα1ΔIBB. The format is binding. Particulars: 100 μg GST-cNLS, 250 μg Impα, glutathione resin, 4°C 1 hr; SDS-PAGE. As for the experimental part:
as §1

Assay [4] concerns mouse Impβ. The assay is described as follows: In vitro GST pull-down with mouse Impβ. The format is binding. Particulars: GST-NLS with His-tagged mouse Impβ (500 μg), 4°C 1 hr; S1 Fig. As for the experimental part: as §1, §2
The test system of assay [5] is HeLa cells. Particulars: region comprising residues 1178–1187 of the human protein; cited from earlier work. The source says: hTNRC6A cNLS (^1179[…]^1187; numbering according to isoform 1 and corresponds to ^926[…]^934 in isoform 2; Fig 1A) is located between the Ago-binding and UBA regions of the protein [35]. This motif is strictly conserved between mouse and humans (Fig 1B), is present in bats and hedgehogs, but appears to be absent in fish and insects.

Assay [6] concerns nuclear accumulation of a fluorescent reporter. Particulars: template SSGA####AG, Lys/Arg combinations predicted to bind at P2-P5; cited from earlier work. The protocol: A detailed mutational analysis of a template monopartite NLS sequence has been reported, where all possible 16 Lys and/or Arg combinations (SSGA####AG, where # represents either Lys or Arg) predicted to bind at the P2-P5 pockets, were tested for their nuclear import activity.

Consider “NLS mutant: GST-TNRC6A cNLS with the four arginine residues substituted to Ala, as previously described (SGKKAAAEA; also: fused to GST (GST not in chain), ends not given here)”, for which the “binding to mImpα1ΔIBB in GST pull-down” value in assay [1] was “binding was disrupted”.

“P2 mutant: GST-TNRC6A cNLS with mTNRC6A Lys1167 mutated to Ala (SGKARRRER; also: fused to GST (GST not in chain), ends not given here)”: the “binding to mImpα1ΔIBB in GST pull-down” value in assay [1] is reported as “completely abolished binding”.

For the substance “SGKKRRRER [GST-TNRC6A cNLS, GST fusion of TNRC6A nuclear localisation signal, residues 1164–1172 of mouse TNRC6A (1179–1187 of human)]”, the “pull-down of human Impβ” value in assay [2] is recorded as “not sufficient to pull-down”. In assay [3], the “binding to hImpα1ΔIBB in GST pull-down” value is “sufficient to interact”. Further, the “pull-down of mouse Impβ” value in assay [4] is “not sufficient to pull-down”. In addition, in assay [1], the “binding to mImpα1ΔIBB in GST pull-down” value was “sufficient to interact”.

In the case of “SGKKRRRER [hTNRC6A cNLS, human TNRC6A cNLS, residues 1179–1187 of isoform 1; strictly conserved with mouse; tested earlier on a GFP reporter]”, the “nuclear localisation of a GFP reporter” value in assay [5] is reported as “sufficient to induce the nuclear localisation”.

As to SSGAKRRRAG, in assay [6], the “nuclear accumulation of a fluorescent reporter” value is reported as “Complete nuclear accumulation”.
